In patent publication US7071180B2, “Certain arylaliphatic and heteroaryl-aliphatic piperazinyl pyrazines and their use in the treatment of serotonin-related diseases” (Biovitrum AB, priority 1999, dated 2006):
Where a name gives a salt, the structure may show the parent alone.

melting point | Compound
120 °C (dec.) | Nc1cccc2ccc(OCCOc3nccnc3N3CCNCC3)cc12 (as salt: maleate) [Example 145, 7-(2-{[3-(1-piperazinyl)-2-pyrazinyl]oxy}ethoxy)-1-naphthylamine]
98 to 100 °C | c1cnc2c(OCCOc3nccnc3N3CCNCC3)cccc2c1 [Example 138, 2-(8-Quinolinyloxy)ethyl 3-(1-piperazinyl)-2-pyrazinyl ether]
156 °C (dec.) | Nc1cc(OCCOc2nccnc2N2CCNCC2)c2ccccc2n1 (as salt: hydrochloride) [Example 160, 4-(2-{[3-(1-piperazinyl)-2-pyrazinyl]oxy}ethoxy)-2-quinolinamine]
157 °C (dec.) | Cc1ccc(OCCOc2nccnc2N2CCNCC2)cn1 (as salt: hydrochloride) [Example 153, 2-(6-Methyl-3-pyridyloxy)ethyl 3-(1-piperazinyl)-2-pyrazinyl ether]
116 to 118 °C | c1cncc(OCCOc2nsnc2N2CCNCC2)c1 (as salt: maleate) [Example 209, 1-{4-[2-(3-Pyridinyloxy)ethoxy]-1,2,5-thiadiazol-3-yl}piperazine]
157 °C (dec.) | C[C@@H]1CNC[C@H](C)N1c1nccnc1OCCOc1cccnc1 (as salt: fumarate) [Example 179, cis-2,6-Dimethyl-1-{3-[2-(3-pyridinyloxy)ethoxy]-2-pyrazinyl}piperazine]
136 °C (dec.) | COc1ccccc1/C=C/COc1nccnc1N1CCNCC1 (as salt: maleate) [Example 212, 2-{[(2E)-3-(2-Methoxyphenyl)-2-propenyl]oxy}-3-(1-piperazinyl)pyrazine]
151.8 to 152.6 °C | COc1ccc(OCCOc2nccnc2N2CCNCC2)cn1 (as salt: maleate) [Example 204, 2-{2-[(6-Methoxy-3-pyridinyl)oxy]ethoxy}-3-(1-piperazinyl)pyrazine]
170 °C (dec.) | c1cc(OCCOc2nccnc2N2CCNCC2)ccn1 (as salt: hydrochloride) [Example 151, 2-(4-Pyridyloxy)ethyl 3-(1-piperazinyl)-2-pyrazinyl ether]

Further lines, the compound ahead of its results:

Compound | melting point
Fc1cc(F)cc(OCCOc2nccnc2N2CCNCC2)c1 (as salt: toluenesulfonate) [Example 114, 2-[2-(3,5-Difluorophenoxy)ethoxy]-3-(1-piperazinyl)pyrazine] | 118 to 119 °C
COc1cccc(OCCOc2nccnc2N2CCNCC2)c1 (as salt: toluenesulfonate) [Example 102, 2-[2-(3-Methoxyphenoxy)ethoxy]-3-(1-piperazinyl)pyrazine] | 131 to 133 °C
c1ccc2c(c1)OC(COc1nccnc1N1CCNCC1)CS2 (centres unmarked) (as salt: fumarate) [Example 132, 2-(2,3-Dihydro-1,4-benzoxathiin-2-ylmethoxy)-3-(1-piperazinyl)pyrazine] | 178 to 179 °C
CN(CCOc1ccccc1)c1nccnc1N1CCNCC1 (as salt: fumarate) [Example 47, N-Methyl-N-(2-phenoxyethyl)-3-(1-piperazinyl)-2-pyrazinamine] | 154 °C
c1coc(COc2nccnc2N2CCNCC2)c1 (as salt: maleate) [Example 2, 2-(2-Furylmethoxy)-3-(1-piperazinyl)pyrazine] | 118 to 120 °C
OCc1cccc(OCCOc2nccnc2N2CCNCC2)c1 (as salt: maleate) [Example 108, [3-(2-{[3-(1-piperazinyl)-2-pyrazinyl]oxy}ethoxy)phenyl]methanol] | 123.2 to 123.5 °C
c1cc(CCCOc2nccnc2N2CCNCC2)ccn1 (as salt: maleate) [Example 127, 2-(1-piperazinyl)-3-[3-(4-pyridinyl)propoxy]pyrazine] | 90 to 91 °C
Cc1ccccc1OCCOc1nccnc1N1CCNCC1 (as salt: maleate) [Example 93, 2-(2-Methylphenoxy)ethyl 3-(1-piperazinyl)-2-pyrazinyl ether] | 151 to 152 °C
